Like-named read-outs stand apart in the source and are kept apart here. Where a SMILES comes first, the peptide text is derived from it. The star is where a group is joined. Succinyl(4-O-cholesteryl) = CC(C)CCC[C@@H](C)[C@H]1CC[C@H]2[C@@H]3CC=C4C[C@@H](OC(=O)CCC(=O)*)CC[C@]4(C)[C@H]3CC[C@]12C
Columns and labels:
primary HIV-1 Envs = test: DSP-based cell–cell fusion assay, panel of primary HIV-1 Envs
H5N1 pseudovirus = settings: 48 h
H7N9 pseudovirus = settings: 48 h
RSV pseudovirus = settings: 48 h
SIV239 pseudovirus = settings: 48 h
SIVPBJ pseudovirus = settings: 48 h
HIV-1NL4-3 Env = format: cell-based; settings: Table 2; HIV-1NL4-3 Env-mediated cell–cell fusion; triplicate, repeated three times; read-out: IC50 ± SD, Env cell fusion
[1] = test system: gp41 HR1-derived peptides (N42, N36, and N38); test: Size-exclusion chromatography of EK1 with gp41 HR1-derived peptides; format: binding, HIV-1; settings: molar ratio 1:1, 0.2 mM, 0.05M sodium phosphate pH 7.2, 37°C 30 min; Superdex-75
Protocol: The binding between EK1 peptide and a target mimic peptide derived from the HR1 sequence of gp41 was analysed by size-exclusion chromatography. In brief, EK1 was mixed with N42, N36 or N38 (molar ratio of 1:1) in 0.05M sodium phosphate (pH 7.2) at a final concentration of 0.2 mM, and then incubated at 37°C for 30 min. The mixture was applied to the Superdex-75 10/300 GL (GE Healthcare, Piscataway, NJ, USA) equilibrated with 50 mM sodium phosphate and eluted at 0.8 ml/min, and fractions were monitored at 214 nm.

HIV-2ROD = settings: read-out: IC50, inhibition of HIV-2ROD infection; Fig 2A; replication-competent virus, TZM-bl cells, 48 h; mean IC50, repeated three times
HIV-2ST = settings: read-out: IC50, inhibition of HIV-2ST infection; Fig 2B; replication-competent virus, TZM-bl cells, 48 h; mean IC50, repeated three times
SARS-CoV-2 = test: Inhibition of SARS-CoV-2 by HIV-1 fusion inhibitors (Table S1); format: cell-based; settings: at a concentration as high as 25 or 50 μM (Table S1)
HIV-1 = test: Inhibition of HIV-1 by HIV-1 fusion inhibitors (Table S1); format: cell-based; settings: Table S1, in words only
[2] = HIV-1 Env 246_F3_C10_2, subtype A/C, triplicate, repeated three times, read-out: Cell fusion (IC50±SD)
[3] = HIV-1 Env 398-F1_F6_20, subtype A, triplicate, repeated three times, read-out: Cell fusion (IC50±SD)
[4] = HIV-1 Env BJOX002000.03.2, subtype B/C, triplicate, repeated three times, read-out: Cell fusion (IC50±SD)
[5] = HIV-1 Env CE1176_A3, subtype C, triplicate, repeated three times, read-out: Cell fusion (IC50±SD)
[6] = HIV-1 Env CE703010217_B6, subtype C, triplicate, repeated three times, read-out: Cell fusion (IC50±SD)
[7] = HIV-1 Env CH119.10, subtype B/C, triplicate, repeated three times, read-out: Cell fusion (IC50±SD)
[8] = HIV-1 Env CNE8, subtype A/E, triplicate, repeated three times, read-out: Cell fusion (IC50±SD)
[9] = HIV-1 Env CNE55, subtype A/E, triplicate, repeated three times, read-out: Cell fusion (IC50±SD)
[10] = HIV-1 Env HIV_25710-2.43, subtype C, triplicate, repeated three times, read-out: Cell fusion (IC50±SD)
[11] = HIV-1 Env SF162, subtype B, triplicate, repeated three times, read-out: Cell fusion (IC50±SD)
[12] = HIV-1 Env TRO.11, subtype B, triplicate, repeated three times, read-out: Cell fusion (IC50±SD)
[13] = HIV-1 Env X1632-S2-B10, subtype G, triplicate, repeated three times, read-out: Cell fusion (IC50±SD)
[14] = HIV-1 Env X2278_C2_B6, subtype B, triplicate, repeated three times, read-out: Cell fusion (IC50±SD)
[15] = Mean over 14 primary HIV-1 Envs of Table 1, read-out: Cell fusion, mean IC50 over the panel

Compound	IC50 (primary HIV-1 Envs; [2])	IC50 (primary HIV-1 Envs; [3])	IC50 (primary HIV-1 Envs; [4])	IC50 (primary HIV-1 Envs; [5])	IC50 (primary HIV-1 Envs; [6])	IC50 (primary HIV-1 Envs; [7])	IC50 (primary HIV-1 Envs; [8])	IC50 (primary HIV-1 Envs; [9])	IC50 (primary HIV-1 Envs; [10])	IC50 (primary HIV-1 Envs; [11])	IC50 (primary HIV-1 Envs; [12])	IC50 (primary HIV-1 Envs; [13])	IC50 (primary HIV-1 Envs; [14])	IC50 (primary HIV-1 Envs; [15])	IC50 (SIV239 pseudovirus)	IC50 (SIVPBJ pseudovirus)	Cytotoxicity on HEK293T cells (HEK293T cells)	Cytotoxicity on TZM-bl cells (TZM-bl cells)	Inhibitory activity against SARS-CoV-2 (SARS-CoV-2)	Inhibition of HIV-1 (HIV-1)	further results
CC[C@H](C)[C@H](NC(=O)[C@H](C)NC(=O)[C@H](CCC(=O)O)NC(=O)[C@H](CCC(=O)O)NC(=O)[C@H](CC(C)C)NC(=O)[C@H](CCCCN)NC(=O)[C@H](CCCCN)NC(=O)[C@H](CCSC)NC(=O)[C@H](CCC(=O)O)NC(=O)[C@H](Cc1ccc(O)cc1)NC(=O)[C@H](CCC(=O)O)NC(=O)[C@H](CC(C)C)NC(=O)[C@H](CC(=O)O)NC(=O)[C@H](CC(C)C)NC(=O)[C@H](Cc1ccccc1)NC(=O)[C@@H](NC(=O)[C@@H](NC(=O)[C@H](CC(N)=O)NC(=O)[C@@H](NC(=O)[C@H](CCC(N)=O)NC(=O)[C@H](CC(=O)O)NC(=O)[C@H](CC(C)C)NC(=O)[C@H](CO)NC(C)=O)[C@@H](C)CC)C(C)C)[C@@H](C)O)C(=O)N[C@@H](CCCCN)C(=O)N[C@@H](CCCCN)C(=O)N[C@@H](CC(C)C)C(=O)N[C@@H](CCC(=O)O)C(=O)N[C@@H](CCC(=O)O)C(=O)N[C@@H](CO)C(=O)N[C@@H](Cc1ccc(O)cc1)C(=O)N[C@H](C(=O)N[C@@H](CC(=O)O)C(=O)N[C@@H](CC(C)C)C(=O)N[C@@H](CCCCN)C(=O)N[C@@H](CCC(=O)O)C(=O)N[C@@H](CC(C)C)C(=O)N[C@@H](CCCCNC(=O)CCC(=O)O[C@H]1CC[C@@]2(C)C(=CC[C@H]3[C@@H]4CC[C@H]([C@H](C)CCCC(C)C)[C@@]4(C)CC[C@@H]32)C1)C(N)=O)[C@@H](C)CC [EK1V1] (Ac-SLDQINVTFLDLEYEMKKLEEAIKKLEESYIDLKELK(Succinyl(4-O-cholesteryl))-NH2; N-terminus and C-terminus assumed)	50 ± 10 nM	170 ± 10 nM	70 ± 10 nM	350 ± 100 nM	40 ± 10 nM	20 ± 4 nM	490 ± 90 nM	130 ± 30 nM	170 ± 30 nM	50 ± 10 nM	680 ± 170 nM	40 ± 10 nM	50 ± 4 nM	170 nM	1430 nM	310 nM	none of them at a concentration of 10 or 25 μM showed significant cytotoxic effects	none of them at a concentration of 10 or 25 μM showed significant cytotoxic effects	–	–	n-fold (HIV-1NL4-3 pseudovirus): 1; IC50 (HIV-1NL4-3 pseudovirus; 1NL4-3 pseudovirus, 48 h): 39.8 nM; IC50 (HIV-1NL4-3 pseudovirus; Table 3, […], mean ± SD, triplicate, repeated three times): 40 ± 2 nM; IC50 (H5N1 pseudovirus): > 25000 nM; IC50 (H7N9 pseudovirus): > 25000 nM; IC50 (RSV pseudovirus): > 25000 nM
CC[C@H](C)[C@H](NC(=O)[C@H](C)NC(=O)[C@H](CCC(=O)O)NC(=O)[C@H](CCC(=O)O)NC(=O)[C@H](CC(C)C)NC(=O)[C@H](CCCCN)NC(=O)[C@H](CCCCN)NC(=O)[C@H](CCSC)NC(=O)[C@H](CCC(=O)O)NC(=O)[C@H](Cc1ccc(O)cc1)NC(=O)[C@H](CCC(=O)O)NC(=O)[C@H](CC(C)C)NC(=O)[C@H](CC(=O)O)NC(=O)[C@H](CC(C)C)NC(=O)[C@H](Cc1ccccc1)NC(=O)[C@@H](NC(=O)[C@@H](NC(=O)[C@H](CC(N)=O)NC(=O)[C@@H](NC(=O)[C@H](CCC(N)=O)NC(=O)[C@H](CC(=O)O)NC(=O)[C@H](CC(C)C)NC(=O)[C@H](CO)NC(C)=O)[C@@H](C)CC)C(C)C)[C@@H](C)O)C(=O)N[C@@H](CCCCN)C(=O)N[C@@H](CCCCN)C(=O)N[C@@H](CC(C)C)C(=O)N[C@@H](CCC(=O)O)C(=O)N[C@@H](CCC(=O)O)C(=O)N[C@@H](CO)C(=O)N[C@@H](Cc1ccc(O)cc1)C(=O)N[C@H](C(=O)N[C@@H](CC(=O)O)C(=O)N[C@@H](CC(C)C)C(=O)N[C@@H](CCCCN)C(=O)N[C@@H](CCC(=O)O)C(=O)N[C@@H](CC(C)C)C(N)=O)[C@@H](C)CC [EK1]	> 5000 nM	> 5000 nM	> 5000 nM	> 5000 nM	> 5000 nM	> 5000 nM	> 5000 nM	> 5000 nM	> 5000 nM	> 5000 nM	> 5000 nM	> 5000 nM	> 5000 nM	> 5000 nM	> 12500 nM	> 12500 nM	none of them at a concentration of 10 or 25 μM showed significant cytotoxic effects	none of them at a concentration of 10 or 25 μM showed significant cytotoxic effects	–	–	IC50 (HIV-1NL4-3 Env): > 5000 nM; IC50 (primary HIV-1 Envs; HIV-1 Env JRFL, subtype B, triplicate, repeated three times, read-out: Cell fusion (IC50±SD)): > 5000 nM; Complex formation with gp41 HR1-derived peptides N42, N36, N38 by size-exclusion chromatography [1]: could form peptide complexes; IC50 (H5N1 pseudovirus): > 25000 nM; IC50 (H7N9 pseudovirus): > 25000 nM; IC50 (RSV pseudovirus): > 25000 nM; IC50 (HIV-2ROD): > 12500 nM; IC50 (HIV-2ST): > 12500 nM
Enfuvirtide	–	–	–	–	–	–	–	–	–	–	–	–	–	–	390 nM	480 nM	–	–	none was found to have inhibitory activity	potently inhibited HIV-1	–
SLDQINVTFLDLEYEMKKLEEAIKKLEESYIDLKEL-GSGSG-PEG4-C(Chol) [EK1C4]	–	–	–	–	–	–	–	–	–	–	–	–	–	–	–	–	none of them at a concentration of 10 or 25 μM showed significant cytotoxic effects	none of them at a concentration of 10 or 25 μM showed significant cytotoxic effects	–	–	–
albuvirtide	–	–	–	–	–	–	–	–	–	–	–	–	–	–	–	–	–	–	none was found to have inhibitory activity	potently inhibited HIV-1	–
sifuvirtide	–	–	–	–	–	–	–	–	–	–	–	–	–	–	–	–	–	–	none was found to have inhibitory activity	potently inhibited HIV-1	–

Source: PMC8812798 (Emerging Microbes & Infections, 2021)
